Marks after values point to notes of the source that are not given here.
Columns and labels:
Ret wt = target: T1, Ret wt (Homo sapiens, UniProt P07949); assay: Inhibition of kinase, Ret wt (HTRF KinEASE-TK); assay type: biochemical
T1 construct: purchased Carna 08-159-10 ug
Method: (§1) Ret wt (Carna, Cat. No. 08-159-10 ug), RET (V804M), Active (Signalchem. Cat. No. R02—12GG), HTRF KinEASE-TK kit (Cisbio, Cat. No.62TK0PEC), CEP-32496 (MCE, Cat. No. HY-15200), ATP (Sigma. Cat. No. A7699), DMSO (Sigma, Cat. No. D8418-1L), DTT (Sigma, Cat. No. D0632), MgCl2(Sigma, Cat. No. M1028), 384-well plate (Labcyte, Cat. No. P-05525-BC).
(§2) Formulation of compound: The test compounds were dissolved in DMSO to obtain 10 mM stock solutions, which were then serially diluted 3-fold in DMSO to obtain 10 concentrations. At the time of addition, the compound was further diluted 10-fold with buffer.
(§3) In 5×kinase buffer A, Ret wt or RET V804M kinase was mixed with different concentrations of compounds prepared by pre-dilution for 10 minutes. Each concentration was tested in duplicate. The corresponding substrate and ATP were added, and reaction was performed at room temperature for 20 minutes (negative and positive controls were provided: the negative control was a blank control, and the positive control was CEP-32496 (Agerafenib)). After completion of the reaction, detection reagents (reagents in the HTRF KinEASE-TK kit) were added. After incubating for 30 minutes at room temperature, enzyme activity in the presence of various concentrations of the compounds of the present disclosure was determined by Envision microplate reader, and inhibitory activity of different concentrations of the compounds on enzyme activity was calculated. The inhibitory activity of different concentrations of the compounds on enzyme activity was fitted by Graphpad 5.0 software, and the IC50 value was calculated.

RET V804M = target: T2, RET V804M (Homo sapiens, UniProt P07949, V804M); assay: Inhibition of kinase, RET V804M (HTRF KinEASE-TK); assay type: biochemical
T2 construct: purchased Signalchem R02—12GG
T2 sequence (P07949 29-1114 V804M): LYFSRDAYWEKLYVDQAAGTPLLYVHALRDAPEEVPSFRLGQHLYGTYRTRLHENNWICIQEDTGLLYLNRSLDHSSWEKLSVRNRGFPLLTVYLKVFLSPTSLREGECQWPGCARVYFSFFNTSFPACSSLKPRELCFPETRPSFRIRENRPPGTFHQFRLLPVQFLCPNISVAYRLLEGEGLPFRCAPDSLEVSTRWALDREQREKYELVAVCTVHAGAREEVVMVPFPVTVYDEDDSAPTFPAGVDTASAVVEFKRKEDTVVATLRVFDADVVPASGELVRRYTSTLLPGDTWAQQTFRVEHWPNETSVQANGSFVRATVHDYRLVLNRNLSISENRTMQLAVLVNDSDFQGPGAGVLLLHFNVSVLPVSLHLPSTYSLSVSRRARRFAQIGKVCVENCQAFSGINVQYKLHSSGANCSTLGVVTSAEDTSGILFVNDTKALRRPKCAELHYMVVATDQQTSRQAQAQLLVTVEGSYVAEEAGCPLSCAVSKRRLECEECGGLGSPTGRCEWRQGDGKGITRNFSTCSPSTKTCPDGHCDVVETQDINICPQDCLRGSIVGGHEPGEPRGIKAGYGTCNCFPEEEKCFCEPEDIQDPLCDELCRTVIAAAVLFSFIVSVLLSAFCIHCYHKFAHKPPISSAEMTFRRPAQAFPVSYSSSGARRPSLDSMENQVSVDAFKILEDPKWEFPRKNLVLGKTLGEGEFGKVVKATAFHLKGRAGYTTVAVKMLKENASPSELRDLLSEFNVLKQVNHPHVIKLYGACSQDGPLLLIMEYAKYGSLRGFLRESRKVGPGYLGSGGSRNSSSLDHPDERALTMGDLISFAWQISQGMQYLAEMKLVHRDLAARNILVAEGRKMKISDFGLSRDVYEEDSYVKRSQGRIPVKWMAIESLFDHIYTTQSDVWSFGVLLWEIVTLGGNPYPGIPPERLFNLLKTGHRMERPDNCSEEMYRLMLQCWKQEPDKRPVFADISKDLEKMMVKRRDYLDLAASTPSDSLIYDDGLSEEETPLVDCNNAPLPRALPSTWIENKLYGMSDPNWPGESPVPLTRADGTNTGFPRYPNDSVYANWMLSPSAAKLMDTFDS
Method: as §1, §2, §3

[1] = system: Ba/F3 KIF5B-RET cell line tumor model; assay: Anti-tumor effect assay in Ba/F3 KIF5B-RET cell line tumor model (allograft); assay type: in vivo, female NPSG mice; conditions: for Tumor volume (x ± S), Day 0 of administration: 10 mg/kg p.o. QD × 14, day 0 (baseline); for TGI (%), Day 14 of administration / Tumor volume (x ± S), Day 14 of administration: 10 mg/kg p.o. QD × 14, day 14
Text: (§4) The efficacy of compounds of the present disclosure in female NPSG mouse allograft models of two B-cell lymphoma cell lines Ba/F3 KIF5B-RET and Ba/F3 KIF5B-RET^G810R was verified.
(§5) Assay animals: Female NPSG mice, 6-8 weeks old (age of mice at the time of tumor cell inoculation), weighing 18-20 g, 60 mice, purchased from Shanghai Jihui Laboratory Animal Care Co., Ltd.
(§6) Assay methods: 1) Ba/F3 KIF5B-RET and Ba/F3 KIF5B-RET^G810R cells were respectively resuscitated and Cultured in vitro, and 3×10^7 cells of each type were obtained. 2) 60 female NPSG mice aged 6-8 weeks were adaptively bred for 1 week and then weighed. 4) After inoculation, tumor volume and body weight were measured once a week. When average tumor volume reached about […], mice inoculated with each type of Ba/F3 cells were randomly divided into 7 groups according to tumor volume and body weight, with 3 mice in each group. The administration was started immediately after grouping. The date of start of administration was regarded as day 0. Informations on administration and grouping were shown in Tables 5 and 6.5) After the start of the administration, the body weight and tumor volume of mice were measured twice a week. 6) After the end of the administration, the assay was over.
(§7) Assay observation and data collection: After tumor inoculation, morbidity and death of animals were observed every working day. Daily observation included tumor growth and effects of drugs on laboratory animals, such as changes in activity, changes in feeding and drinking, weight loss, changes in appearance of hair and eye, death and other clinical symptoms. Formula for calculating tumor volume is: tumor volume (mm^3)=½×(a×b^2) (wherein a represents the long diameter and b represents the short diameter)
(§8) Relative tumor inhibition rate TGI (%): TGI %=(1−T/C)×100%. T/C % is relative tumor proliferation rate, that is, a percentage value of relative tumor volume between treatment group and control group at a certain point in time. T and C are relative tumor volume (RTV, that is, the […] tumor volume at this time point and tumor volume at day 0) of treatment group and control group at a certain point in time, respectively.
(§9) Statistical analysis: For pairwise comparison, a T-Test analysis method was used, and for comparison of three or more groups, a One-Way ANOVA method was used. For comparison of potential synergistic effects, a Two-way ANOVA was used. SPSS 24.0 was used for all data. A p value less than 0.05 was considered a significant difference.

[2] = system: Ba/F3 KIF5B-RET^G810R cell line tumor model; assay: Anti-tumor effect assay in Ba/F3 KIF5B-RET^G810R cell line tumor model (allograft); assay type: in vivo, female NPSG mice; conditions: for Tumor volume (x ± S), Day 0 of administration / Tumor volume (x ± S), Day 13 of administration / TGI (%), Day 13 of administration: Ba/F3 KIF5B-RET^G810R model; for Tumor volume (x ± S), Day 0 of administration: 25 mg/kg p.o. QD × 13, day 0 (baseline); for Tumor volume (x ± S), Day 13 of administration / TGI (%), Day 13 of administration: 25 mg/kg p.o. QD × 13, day 13; for TGI (%), Day 13 of administration: TGI more than 100% = decrease in tumor volume; for relative tumor inhibition rate TGI (%): day 13 of administration, AD80 group 25 mg/kg
Text: as §4, §5, §6, §7, §8, §9

[3] = Safety assay (body weight, tolerability) in Ba/F3 KIF5B-RET cell line tumor model; assay type: in vivo; conditions: for Number of animals at the beginning/end of assay: 10 mg/kg p.o. QD × 14; for Average weight g (x ± S), Day 0 of administration: 10 mg/kg p.o. QD × 14, day 0 (baseline); for Average weight g (x ± S), Day 14 of administration / Weight change rate (%), Day 14 of administration: 10 mg/kg p.o. QD × 14, day 14; for tolerability (weight loss, drug withdrawal, drug toxicity): during the treatment
Method: as §6, §7

[4] = Safety assay (body weight, tolerability) in Ba/F3 KIF5B-RET^G810R cell line tumor model; assay type: in vivo; conditions: for Number of animals at the beginning/end of assay: 25 mg/kg p.o. QD × 13; for Average weight g (x ± S), Day 0 of administration: 25 mg/kg p.o. QD × 13, day 0 (baseline); for Average weight g (x ± S), Day 13 of administration / Weight change rate (%), Day 13 of administration: 25 mg/kg p.o. QD × 13, day 13; for tolerability (weight loss, drug withdrawal, drug toxicity): during the treatment
Method: as §6, §7

T1 sequence (P07949 29-1114): as the sequence (P07949 29-1114 V804M) above, with M776V counted along it

CC(C)n1nc(-c2ccc(CC(=O)Nc3cc(C(C)(C)C(F)(F)F)on3)cn2)c2c(N)ncnc21 [Compound T-7, 2-(6-(4-amino-1-isopropyl-1H-pyrazolo[3,4-d]pyrimidin-3-yl)pyridin-3-yl)-N-(5-(1,1,1-trifluoro-2-methylprop-2-yl)isoxazol-3-yl)acetamide]
IC50 (Ret wt): 1 to 10 nM
IC50 (RET V804M): 1 to 10 nM

CC(C)n1nc(-c2ccc(NC(=O)Nc3cc(C(F)(F)F)ccc3F)cc2)c2c(N)ncnc21 [AD80, reference compound]
Tumor volume (x ± S), Day 0 of administration [1]: 100.3 ± 4.33 mm^3
TGI (%), Day 14 of administration [1]: 46.4%
Tumor volume (x ± S), Day 14 of administration [1]: 821.7 ± 54.5 mm^3
Tumor volume (x ± S), Day 0 of administration [2]: 94.7 ± 5.24 mm^3
Tumor volume (x ± S), Day 13 of administration [2]: 185.7 ± 33.65 mm^3
TGI (%), Day 13 of administration [2]: 75.2%
relative tumor inhibition rate TGI (%) [2]: 75.2%
Number of animals at the beginning/end of assay [3]: 3/3
Average weight g (x ± S), Day 0 of administration [3]: 20.1 ± 0.81 g
Average weight g (x ± S), Day 14 of administration [3]: 22.6 ± 0.87 g
Weight change rate (%), Day 14 of administration [3]: 12.7%
tolerability (weight loss, drug withdrawal, drug toxicity) [3]: well tolerated
Number of animals at the beginning/end of assay [4]: 3/3
Average weight g (x ± S), Day 0 of administration [4]: 19.9 ± 0.44 g
Average weight g (x ± S), Day 13 of administration [4]: 20.7 ± 1.53 g
Weight change rate (%), Day 13 of administration [4]: 4.14%
tolerability (weight loss, drug withdrawal, drug toxicity) [4]: well tolerated

CC(C)n1cc(-c2ccc(CC(=O)Nc3cc(C(C)(C)C(F)(F)F)on3)cc2)c2c(N)ncnc21 [Compound T-3, 2-(4-(4-amino-7-isopropyl-7H-pyrrolo[2,3-d]pyrimidin-5-yl)phenyl)-N-(5-(1,1,1-trifluoro-2-methylprop-2-yl)isoxazol-3-yl)acetamide]
IC50 (Ret wt): ≤ 0.5 nM
IC50 (RET V804M): 1 to 10 nM
Tumor volume (x ± S), Day 0 of administration [1]: 104 ± 10.44 mm^3
TGI (%), Day 14 of administration [1]: 96.3%
Tumor volume (x ± S), Day 14 of administration [1]: 153.7 ± 13.22 mm^3
Tumor volume (x ± S), Day 0 of administration [2]: 102 ± 7.77 mm^3
Tumor volume (x ± S), Day 13 of administration [2]: 132.7 ± 11.78 mm^3
TGI (%), Day 13 of administration [2]: 91.6%
relative tumor inhibition rate TGI (%) [2]: 91.6%
Number of animals at the beginning/end of assay [3]: 3/3
Average weight g (x ± S), Day 0 of administration [3]: 19.6 ± 0.84 g
Average weight g (x ± S), Day 14 of administration [3]: 21.5 ± 0.7 g
Weight change rate (%), Day 14 of administration [3]: 9.8%
tolerability (weight loss, drug withdrawal, drug toxicity) [3]: well tolerated
Number of animals at the beginning/end of assay [4]: 3/3
Average weight g (x ± S), Day 0 of administration [4]: 19.9 ± 1.18 g
Average weight g (x ± S), Day 13 of administration [4]: 23.1 ± 1.49 g
Weight change rate (%), Day 13 of administration [4]: 16.01%
tolerability (weight loss, drug withdrawal, drug toxicity) [4]: well tolerated

CC(C)n1nc(-c2ccc(CC(=O)Nc3cc(C(C)(C)C(F)(F)F)no3)cc2)c2c(N)ncnc21 [Compound T-8, 2-(4-(4-amino-1-isopropyl-1H-pyrazolo[3,4-d]pyrimidin-3-yl)phenyl)-N-(3-(1,1,1-trifluoro-2-methylprop-2-yl)isoxazol-5-yl)acetamide]
Tumor volume (x ± S), Day 0 of administration [1]: 101.3 ± 4.33 mm^3
TGI (%), Day 14 of administration [1]: 95.4%
Tumor volume (x ± S), Day 14 of administration [1]: 163.7 ± 19.74 mm^3
Tumor volume (x ± S), Day 0 of administration [2]: 96.7 ± 6.74 mm^3
Tumor volume (x ± S), Day 13 of administration [2]: 90.7 ± 8.41 mm^3
TGI (%), Day 13 of administration [2]: 101.6%#
relative tumor inhibition rate TGI (%) [2]: 101.6%
Number of animals at the beginning/end of assay [3]: 3/3
Average weight g (x ± S), Day 0 of administration [3]: 20.5 ± 1.07 g
Average weight g (x ± S), Day 14 of administration [3]: 21.7 ± 0.82 g
Weight change rate (%), Day 14 of administration [3]: 6.0%
tolerability (weight loss, drug withdrawal, drug toxicity) [3]: well tolerated
Number of animals at the beginning/end of assay [4]: 3/3
Average weight g (x ± S), Day 0 of administration [4]: 19.6 ± 0.32 g
Average weight g (x ± S), Day 13 of administration [4]: 22.5 ± 0.73 g
Weight change rate (%), Day 13 of administration [4]: 14.40%
tolerability (weight loss, drug withdrawal, drug toxicity) [4]: well tolerated

[2H]C([2H])([2H])C(n1nc(-c2ccc(CC(=O)Nc3cc(C(C)(C)C(F)(F)F)no3)cc2)c2c(N)ncnc21)C([2H])([2H])[2H] [Compound T-11, 2-(4-(4-amino-1-(propan-2-yl-1,1,1,3,3,3-d6)-1H-pyrazolo[3,4-d]pyrimidin-3-yl)phenyl)-N-(3-(1,1,1-trifluoro-2-methylpropan-2-yl)isoxazol-5-yl)acetamide]
IC50 (Ret wt): 1 to 10 nM
IC50 (RET V804M): 1 to 10 nM

CC(C)c1nc(-c2ccc(CC(=O)Nc3cc(C(C)(C)C(F)(F)F)on3)cc2)c2c(N)nccn12 [Compound T-4, 2-(4-(8-amino-3-isopropylimidazo[1,5-a]pyrazin-1-yl)phenyl)-N-(5-(1,1,1-trifluoro-2-methylprop-2-yl)isoxazol-3-yl)acetamide]
IC50 (Ret wt): ≤ 0.5 nM
IC50 (RET V804M): 1 to 10 nM

[2H]C([2H])([2H])C(n1cc(-c2ccc(CC(=O)Nc3cc(C(C)(C)C(F)(F)F)on3)cc2)c2c(N)ncnc21)C([2H])([2H])[2H] [Compound T-12, 2-(4-(4-amino-7-(propen-2-yl-1,1,1,3,3,d6)-7H-pyrrolo[2,3-d]pyrimidin-5-yl)phenyl)-N-(5-(1,1,1-trifluo-2-methylpropan-2-yl)isoxazol-3-yl)acetamide]
IC50 (Ret wt): 10 to 50 nM
IC50 (RET V804M): 1 to 10 nM
